{"source": "patent US7157099B2", "about": "“Sustained release pharmaceutical compositions for the parenteral administration of hydrophilic compounds” (Italfarmaco S.p.A., priority 2000, dated 2007)", "key": {"[1]": {"settings": "male rats, 6 mg/rat of microemulsion of Example 11", "protocol": "(§1) Plasma samples were taken before the administration of the compound and 0.5 hours, 24 hours, 4, 6 and 8 days after treatment.\n(§2) Octreotide was extracted from plasma and analyzed with LC-MS-MS apparatus vs. a calibration curve."}, "in vivo": {"assay": "in vivo", "settings": "male, rat, plasma, 6 mg/rat", "protocol": "as §1, §2"}}, "data": [{"compound": "C[C@@H](O)[C@@H]1NC(=O)[C@H](CCCCN)NC(=O)[C@@H](Cc2c[nH]c3ccccc23)NC(=O)[C@H](Cc2ccccc2)NC(=O)[C@@H](NC(=O)[C@H](N)Cc2ccccc2)CSSC[C@@H](C(=O)N[C@H](CO)[C@@H](C)O)NC1=O", "note": "[Octreotide]", "values": [{"measurement": "Time until which significant Octreotide plasma levels were found after treatment", "setting": "[1]", "value": 8, "unit": "days"}, {"measurement": "level at 0.5 h", "setting": "in vivo", "value": 539, "unit": "ng/mL"}, {"measurement": "level at 24 h", "setting": "in vivo", "value": 40.2, "unit": "ng/mL"}, {"measurement": "level at 96 h", "setting": "in vivo", "value": 62.5, "unit": "ng/mL"}, {"measurement": "level at 144 h", "setting": "in vivo", "value": 4.5, "unit": "ng/mL"}, {"measurement": "level at 192 h", "setting": "in vivo", "value": 7.6, "unit": "ng/mL"}]}]}
